{
  "source": "patent US20250208149A1",
  "about": "“WEE1 COMPOUND FOR TREATING UTERINE SEROUS CARCINOMA” (Recurium IP Holdings, LLC, priority 2022, published 2025)",
  "type_in_all_cases": "cell-based",
  "key": {"[1]": {"tested_on": "HEC-59 endometrial cancer cells", "assay": "Percent inhibition of cell growth, ZN-c3, LB-100 or ZN-c3+LB-100 (cell titer glow)", "settings": "HEC-59 (PPP2R1A wild-type), 72 hours; ZN-c3 400 nM, LB-100 1 μM", "description": "FIG. 18 depicts the percent inhibition of cell growth in HEC-59 endometrial cancer cells after treatment with ZN-c3 alone, the PP2A catalytic inhibitor LB-100 alone, or the combination of ZN-c3+LB-100. HEC-59 cell line is PPP2R1A wild-type. […] Percent inhibition is calculated using cell titer glow analysis.\n(§1) Various cancer cell lines were treated with ZN-c3 alone, the PP2A catalytic inhibitor LB-100 alone, or the combination of ZN-c3+LB-100. As in Example 1 and Example 2, the treatment period was 72 hours and percent inhibition was calculated using cell titer glow analysis.\nThe endometrial cancer cell line HEC-59 was assessed for sensitivity to ZN-c3 alone, LB-100 alone, or the combination of ZN-c3+LB-100 (FIG. 18)."}, "[2]": {"tested_on": "OV17R ovarian cancer cells", "assay": "ZN-c3 dose response, percent cell density (cell titer glow)", "description": "FIG. 17 depicts the percent cell density of OV17R ovarian cancer cells after treatment with a 10-point dose response of ZN-c3 for 72 hours. OV17R has the S256F hotspot missense mutation in PPP2R1A. […] Percent cell density is calculated using cell titer glow analysis.\nHaving observed that siRNA mediated knockdown of PPP2R1A sensitized cancer cell lines to treatment with ZN-c3, it was also of interest to evaluate if CRISPR mediated PPP2R1A knockout produced a similar effect. Various cancer cell lines were transfected with a CRISPR guide RNA targeting PPP2R1A or nontargeting guide RNA and the cells were treated with a 10-point dose response of ZN-c3 for 72 hours. The 10-point dose response to ZN-c3 included the same dosages used in Example 1. As in Example 1, no media change was performed during the 72-hour ZN-c3 dose response evaluation period. Fewer than 20 cell passages were completed between the CRISPR mediated knockout and ZN-c3 treatment. CRISPR was performed by targeting PPP2R1A with a PPP2R1A sgRNA sequence. Percent cell density was calculated using cell titer glow analysis.\nThe ovarian cancer cell line OV17R was assessed for sensitivity to ZN-c3 by measurement of reduction in percent cell density (FIG. 17)."}, "[3]": {"tested_on": "HEC1B endometrial cancer cells", "assay": "Percent inhibition of cell growth, ZN-c3, LB-100 or ZN-c3+LB-100 after siCTRL or siPPP2R1A (cell titer glow)", "settings": "HEC1B, 72 hours, ZN-c3 200 nM, LB-100 1 μM", "description": "FIG. 21 depicts the percent inhibition of cell growth in HEC1B endometrial cancer cells after treatment with ZN-c3 alone, the PP2A catalytic inhibitor LB-100 alone, or the combination of ZN-c3+LB-100 after siRNA mediated knockdown of PPP2R1A. […] Percent inhibition is calculated using cell titer glow analysis.\n(§2) Following observations that both knockdown and knockout of PPP2R1A could sensitize cancer cells to Zn-C3, the effects of pharmacological inhibition of PPP2R1A with the catalytic inhibitor LB-100 were evaluated. Various cancer cell lines were treated with ZN-c3 alone, the PP2A catalytic inhibitor LB-100 alone, or the combination of ZN-c3+LB-100. As in Example 1 and Example 2, the treatment period was 72 hours and percent inhibition was calculated using cell titer glow analysis.\nThe endometrial cancer cell line HEC1B was also assessed for sensitivity to ZN-c3 alone, LB-100 alone, or the combination of ZN-c3+LB-100 following treatment with siCTRL or siPPP2R1A (FIG. 21)."}, "[4]": {"tested_on": "HEC-59 endometrial cancer cells", "assay": "Percent inhibition of cell growth, ZN-c3, LB-100 or ZN-c3+LB-100 after siCTRL or siPPP2R1A (cell titer glow)", "settings": "72 hours, ZN-c3 300 nM, LB-100 1 μM", "description": "FIG. 20 depicts the percent inhibition of cell growth in HEC-59 endometrial cancer cells after treatment with ZN-c3 alone, the PP2A catalytic inhibitor LB-100 alone, or the combination of ZN-c3+LB-100 after siRNA mediated knockdown of PPP2R1A. […] Percent inhibition is calculated using cell titer glow analysis.\nas §1\nThe endometrial cancer cell line HEC-59 was assessed for sensitivity to ZN-c3 alone, LB-100 alone, or the combination of ZN-c3+LB-100 following treatment with siCTRL or siPPP2R1A (FIG. 20)."}, "[5]": {"tested_on": "OV17R ovarian cancer cells", "assay": "Percent inhibition of cell growth, ZN-c3, LB-100 or ZN-c3+LB-100 (cell titer glow)", "settings": "OV17R (PPP2R1A S256F), 72 hours; ZN-c3 75 nM, LB-100 1 μM", "description": "FIG. 19 depicts the percent inhibition of cell growth in OV17R ovarian cancer cells after treatment with ZN-c3 alone, the PP2A catalytic inhibitor LB-100 alone, or the combination of ZN-c3+LB-100. OV17R has the PPP2R1A missense mutation S256F. Percent inhibition is calculated using cell titer glow analysis.\nas §2\nThe ovarian cancer cell line OV17R was assessed for sensitivity to ZN-c3 alone, LB-100 alone, or the combination of ZN-c3+LB-100 (FIG. 19)."}},
  "note": "pEC50: −log10 of the molar value. Entries after “also recorded” stand apart in the source; their conditions may differ.",
  "data": [
    {"smiles": "C=CCn1c(=O)c2cnc(Nc3ccc(N4CCN(C)CC4)cc3)nc2n1-c1ccc2c(n1)[C@@](O)(CC)CC2", "note": "[ZN-c3, (R)-2-allyl-1-(7-ethyl-7-hydroxy-6,7-dihydro-5H-cyclopenta[b]pyridin-2-yl)-6-((4-(4-methylpiperazin-1-yl)phenyl)amino)-1,2-dihydro-3H-pyrazolo[3,4-d]pyrimidin-3-one]", "values": [
      {"measurement": "percent inhibition of cell growth", "setting": "[1]", "result": "approximately 25%"},
      {"measurement": "sensitivity of cell line to ZN-c3 treatment", "setting": "[2]; OV17R cells (PPP2R1A S256F hotspot missense mutation)", "result": "highly susceptible; also recorded: highly sensitive"},
      {"measurement": "pEC50", "setting": "[2]; OV17R cells (PPP2R1A S256F), 72 hours", "result": 6.86},
      {"measurement": "percent inhibition of cell growth", "setting": "[3]; siCTRL", "result": "approximately 30%"},
      {"measurement": "percent inhibition in siPPP2R1A treated cells compared to siCTRL treated cells", "setting": "[3]; siPPP2R1A", "result": "approximately the same"},
      {"measurement": "percent inhibition of cell growth", "setting": "[4]; HEC-59, siCTRL", "result": "approximately 12%"},
      {"measurement": "percent inhibition in siPPP2R1A treated cells compared to siCTRL treated cells", "setting": "[4]; HEC-59, siPPP2R1A", "result": "approximately doubled"},
      {"measurement": "percent inhibition of cell growth", "setting": "[5]", "result": "approximately 30%"}
    ]}
  ]
}
